Where no end group is shown, it is not given here. [ ]: non-standard residue; d: D form. Arg(Me2a) = CN(C)C(=N)NCCC[C@H](N)C(=O)O; pS = N[C@@H](COP(=O)(O)O)C(=O)O
Tests used:
Assay in all cases: Histone peptide microarray
Type in all cases: binding, human
[1] = test system: AIRE (PP); settings: AIRE (PP), GST-tagged; arrays performed twice, n of 4
Text: (§1) To more comprehensively define the histone interactions of the 31 PHD readers identified from the domain microarray analyses, we probed each on an alternate microarray platform containing a library of 293 synthetic histone peptides with single or combinatorial PTMs (Additional file 2: Figure S4 and Additional file 3: Table S2).
(§2) The 31 GST-tagged PHD readers identified in the PHD finger domain array were expressed and purified as previously. Histone peptide arrays and peptide pulldown assays were conducted as recently described (specifically, the optimized protocol from Petell et al. for the former).
(§3) Supplementary file 13072_2020_328_MOESM3_ESM.xlsx: Additional file 3: Table S2. […] Excel Tab Peptide List is a compiled list of the entire 293 histone peptide library with amino acid sequence ranges. […] Each number corresponds to the peptide number designated in Peptide List. Excel Tab Average Signals is a compiled set of binding data: chromatin reader at 0.5 μM vs. entire 293 peptide library. Data is presented as the average and standard deviation of 4 replicates. The average signals are colored to indicate signal intensity with green being strong and white being weak/low. […] Key: red= stronger relative binding; blue = weaker relative binding. Excel Tab Array info summary is a table summarizing the domains, sequence coverage, array signal range, and noise for each of the GST-tagged readers assayed on the peptide microarrays.

[2] = test system: BAZ2B; settings: BAZ2B, GST-tagged; arrays performed twice, n of 4
Text: as §1, §2, §3

[3] = test system: BPTF (PB); settings: BPTF (PB), GST-tagged; arrays performed twice, n of 4
Text: as §1, §2, §3

[4] = test system: CHD4 (PPCC); settings: CHD4 (PPCC), GST-tagged; arrays performed twice, n of 4
Text: as §1, §2, §3

[5] = test system: CHD5 (PCC); settings: CHD5 (PCC), GST-tagged; arrays performed twice, n of 4
Text: as §1, §2, §3

[6] = test system: CHD5 (PPCC); settings: CHD5 (PPCC), GST-tagged; arrays performed twice, n of 4
Text: as §1, §2, §3

[7] = test system: DIDO1; settings: DIDO1, GST-tagged; arrays performed twice, n of 4
Text: as §1, §2, §3

[8] = test system: DPF2 (PPC2W2); settings: DPF2 (PPC2W2), GST-tagged; arrays performed twice, n of 4
Text: as §1, §2, §3

[9] = test system: ING1; settings: ING1, GST-tagged; arrays performed twice, n of 4
Text: as §1, §2, §3

[10] = test system: ING2; settings: ING2, GST-tagged; arrays performed twice, n of 4
Text: as §1, §2, §3

[11] = test system: ING3; settings: ING3, GST-tagged; arrays performed twice, n of 4
Text: as §1, §2, §3

[12] = test system: ING4; settings: ING4, GST-tagged; arrays performed twice, n of 4
Text: as §1, §2, §3

[13] = test system: ING5; settings: ING5, GST-tagged; arrays performed twice, n of 4
Text: as §1, §2, §3

[14] = test system: KDM4C (TTP); settings: KDM4C (TTP), GST-tagged; arrays performed twice, n of 4
Text: as §1, §2, §3

[15] = test system: KDM5A (1); settings: KDM5A (1), GST-tagged; arrays performed twice, n of 4
Text: as §1, §2, §3

[16] = test system: KDM5A (3); settings: KDM5A (3), GST-tagged; arrays performed twice, n of 4
Text: as §1, §2, §3

[17] = test system: KDM5B (1); settings: KDM5B (1), GST-tagged; arrays performed twice, n of 4
Text: as §1, §2, §3

[18] = test system: KDM5B (3); settings: KDM5B (3), GST-tagged; arrays performed twice, n of 4
Text: as §1, §2, §3

[19] = test system: KDM7A; settings: KDM7A, GST-tagged; arrays performed twice, n of 4
Text: as §1, §2, §3

[20] = test system: MLL5; settings: MLL5, GST-tagged; arrays performed twice, n of 4
Text: as §1, §2, §3

[21] = test system: MORC3 (CW); settings: MORC3 (CW), GST-tagged; arrays performed twice, n of 4
Text: as §1, §2, §3

[22] = test system: PHF13; settings: PHF13, GST-tagged; arrays performed twice, n of 4
Text: as §1, §2, §3

[23] = test system: PHF21A; settings: PHF21A, GST-tagged; arrays performed twice, n of 4
Text: as §1, §2, §3

[24] = test system: PHF23; settings: PHF23, GST-tagged; arrays performed twice, n of 4
Text: as §1, §2, §3

[25] = test system: PHF2; settings: PHF2, GST-tagged; arrays performed twice, n of 4
Text: as §1, §2, §3

[26] = test system: PHF8; settings: PHF8, GST-tagged; arrays performed twice, n of 4
Text: as §1, §2, §3

[27] = test system: PHRF1 (RP); settings: PHRF1 (RP), GST-tagged; arrays performed twice, n of 4
Text: as §1, §2, §3

[28] = test system: RAG2; settings: RAG2, GST-tagged; arrays performed twice, n of 4
Text: as §1, §2, §3

[29] = test system: SP140L; settings: SP140L, GST-tagged; arrays performed twice, n of 4
Text: as §1, §2, §3

[30] = test system: TAF3; settings: TAF3, GST-tagged; arrays performed twice, n of 4
Text: as §1, §2, §3

[31] = test system: TRIM66 (PB); settings: TRIM66 (PB), GST-tagged; arrays performed twice, n of 4
Text: as §1, §2, §3

Substance	Array Heatmap value (peptide array binding signal) [1]	Array Heatmap value (peptide array binding signal) [2]	Array Heatmap value (peptide array binding signal) [3]	Array Heatmap value (peptide array binding signal) [4]	Array Heatmap value (peptide array binding signal) [5]	Array Heatmap value (peptide array binding signal) [6]	Array Heatmap value (peptide array binding signal) [7]	Array Heatmap value (peptide array binding signal) [8]	Array Heatmap value (peptide array binding signal) [9]	Array Heatmap value (peptide array binding signal) [10]	Array Heatmap value (peptide array binding signal) [11]	Array Heatmap value (peptide array binding signal) [12]	Array Heatmap value (peptide array binding signal) [13]	Array Heatmap value (peptide array binding signal) [14]	Array Heatmap value (peptide array binding signal) [15]	Array Heatmap value (peptide array binding signal) [16]	Array Heatmap value (peptide array binding signal) [17]	Array Heatmap value (peptide array binding signal) [18]	Array Heatmap value (peptide array binding signal) [19]	Array Heatmap value (peptide array binding signal) [20]	also measured
H2AR3me2a + K5ac: H2A 1-17 (SG[Arg(Me2a)]GK(Ac)QGGKARAKAKTR; UniProt P0C0S8 2-18, looked up, fragment)	0.4061	0.4585	0.3416	0.5411	0.7634	0.5209	0.6572	0.6169	0.502	0.5954	0.4528	0.4409	0.3401	0.4418	0.4472	0.4055	0.6265	0.4618	0.3242	0.5527	Array Heatmap value (peptide array binding signal) [21]: 0.3531; Array Heatmap value (peptide array binding signal) [22]: 0.6011; Array Heatmap value (peptide array binding signal) [23]: 0.4417; Array Heatmap value (peptide array binding signal) [24]: 0.5294; Array Heatmap value (peptide array binding signal) [25]: 0.5234; Array Heatmap value (peptide array binding signal) [26]: 0.3477; Array Heatmap value (peptide array binding signal) [27]: 0.4082; Array Heatmap value (peptide array binding signal) [28]: 0.2374; Array Heatmap value (peptide array binding signal) [29]: 0.3352; Array Heatmap value (peptide array binding signal) [30]: 0.2475; Array Heatmap value (peptide array binding signal) [31]: 0.6358
H2AS1p + K5ac + K9ac + K13ac + K15ac: H2A 1-17 ([pS]GRGK(Ac)QGGK(Ac)ARAK(Ac)AK(Ac)TR; UniProt P0C0S8 2-18, looked up, fragment)	0.5117	0.4549	0.3406	0.5891	0.7774	0.5428	0.6263	0.6038	0.5008	0.5905	0.4609	0.4636	0.3496	0.5241	0.482	0.391	0.6538	0.5168	0.4384	0.519	Array Heatmap value (peptide array binding signal) [21]: 0.4032; Array Heatmap value (peptide array binding signal) [22]: 0.6036; Array Heatmap value (peptide array binding signal) [23]: 0.4797; Array Heatmap value (peptide array binding signal) [24]: 0.5205; Array Heatmap value (peptide array binding signal) [25]: 0.4023; Array Heatmap value (peptide array binding signal) [26]: 0.3673; Array Heatmap value (peptide array binding signal) [27]: 0.4027; Array Heatmap value (peptide array binding signal) [28]: 0.2429; Array Heatmap value (peptide array binding signal) [29]: 0.3555; Array Heatmap value (peptide array binding signal) [30]: 0.2828; Array Heatmap value (peptide array binding signal) [31]: 0.5729
H2AS1p + K5ac: H2A 1-17 ([pS]GRGK(Ac)QGGKARAKAKTR; UniProt P0C0S8 2-18, looked up, fragment)	0.2932	0.3559	0.2697	0.4644	0.6294	0.3972	0.6049	0.5432	0.485	0.5878	0.3526	0.3411	0.2521	0.3213	0.3412	0.4071	0.5673	0.3803	0.2299	0.4623	Array Heatmap value (peptide array binding signal) [21]: 0.3086; Array Heatmap value (peptide array binding signal) [22]: 0.4493; Array Heatmap value (peptide array binding signal) [23]: 0.3599; Array Heatmap value (peptide array binding signal) [24]: 0.4819; Array Heatmap value (peptide array binding signal) [25]: 0.5004; Array Heatmap value (peptide array binding signal) [26]: 0.2793; Array Heatmap value (peptide array binding signal) [27]: 0.3697; Array Heatmap value (peptide array binding signal) [28]: 0.2266; Array Heatmap value (peptide array binding signal) [29]: 0.2923; Array Heatmap value (peptide array binding signal) [30]: 0.2127; Array Heatmap value (peptide array binding signal) [31]: 0.4856

From paper PMC6979384, “Characterization of the plant homeodomain (PHD) reader family for their histone tail interactions” (Epigenetics & Chromatin, 2020)
